For 3 compounds, Activity and Ki results are on record in ChEMBL document CHEMBL3797164, “Transfer of SAR information from hypotensive indazole to indole derivatives acting at α-adrenergic receptors: In vitro and in vivo studies” (Eur J Med Chem, 2016).

Experiment [1] relates to Rattus norvegicus. Description: Antihypertensive activity in anesthetized Wistar rat assessed as change in heart rate at 0.1 mg/kg, iv administered as bolus dose after 30 mins (reference value: -8.6 […]). Format: functional.
The target in experiment [2] is T1, Adrenergic receptor alpha-2 (Rattus norvegicus, UniProt P22086+P19328+P22909).
T1 sequence (P22086 whole entry): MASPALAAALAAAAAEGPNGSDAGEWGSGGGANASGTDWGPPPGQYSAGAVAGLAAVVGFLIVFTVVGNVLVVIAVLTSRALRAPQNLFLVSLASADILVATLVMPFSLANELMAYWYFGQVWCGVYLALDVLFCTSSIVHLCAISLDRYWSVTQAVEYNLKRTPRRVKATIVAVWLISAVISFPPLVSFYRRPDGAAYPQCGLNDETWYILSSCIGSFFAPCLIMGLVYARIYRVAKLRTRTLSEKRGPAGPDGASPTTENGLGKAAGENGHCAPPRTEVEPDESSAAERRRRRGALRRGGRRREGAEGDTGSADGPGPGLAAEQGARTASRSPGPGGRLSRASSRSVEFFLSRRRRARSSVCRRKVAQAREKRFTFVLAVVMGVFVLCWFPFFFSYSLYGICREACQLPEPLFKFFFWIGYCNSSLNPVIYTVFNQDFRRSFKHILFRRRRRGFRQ
T1 sequence (P19328 whole entry): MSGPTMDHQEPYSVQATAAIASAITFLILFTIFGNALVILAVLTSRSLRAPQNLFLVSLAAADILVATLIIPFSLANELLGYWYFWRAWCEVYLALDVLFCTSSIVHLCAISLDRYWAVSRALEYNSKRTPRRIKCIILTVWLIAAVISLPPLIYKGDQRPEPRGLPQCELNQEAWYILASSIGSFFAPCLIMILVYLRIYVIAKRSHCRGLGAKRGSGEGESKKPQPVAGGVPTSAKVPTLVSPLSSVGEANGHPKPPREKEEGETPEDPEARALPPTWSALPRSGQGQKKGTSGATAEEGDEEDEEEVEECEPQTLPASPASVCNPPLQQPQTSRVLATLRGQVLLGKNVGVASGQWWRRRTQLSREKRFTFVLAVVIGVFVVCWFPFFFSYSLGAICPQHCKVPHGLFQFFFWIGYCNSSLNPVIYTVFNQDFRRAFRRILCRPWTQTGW
T1 sequence (P22909 whole entry): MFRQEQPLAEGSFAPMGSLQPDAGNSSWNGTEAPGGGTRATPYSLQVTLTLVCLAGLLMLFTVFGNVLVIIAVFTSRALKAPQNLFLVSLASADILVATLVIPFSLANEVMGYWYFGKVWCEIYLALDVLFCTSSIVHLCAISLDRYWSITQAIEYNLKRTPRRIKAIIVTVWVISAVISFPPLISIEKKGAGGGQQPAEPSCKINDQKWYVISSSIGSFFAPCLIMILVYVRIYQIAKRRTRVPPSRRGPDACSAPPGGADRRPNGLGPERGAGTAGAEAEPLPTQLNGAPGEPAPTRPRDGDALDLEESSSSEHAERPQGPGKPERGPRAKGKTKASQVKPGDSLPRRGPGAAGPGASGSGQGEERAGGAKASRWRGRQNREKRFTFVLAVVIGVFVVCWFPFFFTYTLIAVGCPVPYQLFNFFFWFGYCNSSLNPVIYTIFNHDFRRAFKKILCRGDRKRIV
Description: Displacement of [3H]RX821002 from Alpha-2 adrenergic receptor in Sprague-Dawley rat brain P2 membranes after […] by liquid scintillation counting. (In general: Loss of bound radioactivity is the signal in a displacement assay; it reports binding, not function.)

In experiment [3] the test system is Rattus norvegicus. The experiment can be described thus: Antihypertensive activity in anesthetized Wistar rat assessed as change in mean arterial blood pressure at 0.1 mg/kg, iv administered as bolus dose after 60 mins (reference value: -3.5 mmHg). The class given is functional.
Experiment [4] is described as follows: Displacement of [3H]2BFI from Imidazoline receptor 2 in Sprague-Dawley rat brain P2 membrans after […] by liquid scintillation counting.
In experiment [5] the test system is Rattus norvegicus. Description: Antihypertensive activity in anesthetized Wistar rat assessed as change in mean arterial blood pressure at 0.1 mg/kg, iv administered as bolus dose after 30 mins (reference value: -1.3 mmHg). The class given is functional.
For experiment [6], the system named is Rattus norvegicus. The experiment can be described thus: Antihypertensive activity in anesthetized Wistar rat assessed as change in heart rate at 0.1 mg/kg, iv administered as bolus dose after 15 mins (reference value: -6.0 […]). Format: functional.
Experiment [7] has as its system Rattus norvegicus. Description: Antihypertensive activity in anesthetized Wistar rat assessed as change in mean arterial blood pressure at 0.1 mg/kg, iv administered as bolus dose after 15 mins (reference value: -0.8 mmHg). The class given is functional.
The next experiment addresses Nischarin (Rattus norvegicus, UniProt Q4G017). The experiment can be described thus: Displacement of [3H]clonidine from Imidazoline receptor 1 in Sprague-Dawley rat kidney P2 membranes after […] by liquid scintillation counting.
The subject of experiment [8] is Rattus norvegicus. The experiment can be described thus: Antihypertensive activity in anesthetized Wistar rat assessed as change in mean arterial blood pressure at 0.1 mg/kg, iv administered as bolus dose after 5 mins (reference value: 0.4 mmHg). The class given is functional.
For experiment [9], the system named is Rattus norvegicus. Description: Antihypertensive activity in anesthetized Wistar rat assessed as change in heart rate at 0.1 mg/kg, iv administered as bolus dose after 60 mins (reference value: -6.2 […]). Format: functional.

Sequence of Nischarin (Q4G017 whole entry): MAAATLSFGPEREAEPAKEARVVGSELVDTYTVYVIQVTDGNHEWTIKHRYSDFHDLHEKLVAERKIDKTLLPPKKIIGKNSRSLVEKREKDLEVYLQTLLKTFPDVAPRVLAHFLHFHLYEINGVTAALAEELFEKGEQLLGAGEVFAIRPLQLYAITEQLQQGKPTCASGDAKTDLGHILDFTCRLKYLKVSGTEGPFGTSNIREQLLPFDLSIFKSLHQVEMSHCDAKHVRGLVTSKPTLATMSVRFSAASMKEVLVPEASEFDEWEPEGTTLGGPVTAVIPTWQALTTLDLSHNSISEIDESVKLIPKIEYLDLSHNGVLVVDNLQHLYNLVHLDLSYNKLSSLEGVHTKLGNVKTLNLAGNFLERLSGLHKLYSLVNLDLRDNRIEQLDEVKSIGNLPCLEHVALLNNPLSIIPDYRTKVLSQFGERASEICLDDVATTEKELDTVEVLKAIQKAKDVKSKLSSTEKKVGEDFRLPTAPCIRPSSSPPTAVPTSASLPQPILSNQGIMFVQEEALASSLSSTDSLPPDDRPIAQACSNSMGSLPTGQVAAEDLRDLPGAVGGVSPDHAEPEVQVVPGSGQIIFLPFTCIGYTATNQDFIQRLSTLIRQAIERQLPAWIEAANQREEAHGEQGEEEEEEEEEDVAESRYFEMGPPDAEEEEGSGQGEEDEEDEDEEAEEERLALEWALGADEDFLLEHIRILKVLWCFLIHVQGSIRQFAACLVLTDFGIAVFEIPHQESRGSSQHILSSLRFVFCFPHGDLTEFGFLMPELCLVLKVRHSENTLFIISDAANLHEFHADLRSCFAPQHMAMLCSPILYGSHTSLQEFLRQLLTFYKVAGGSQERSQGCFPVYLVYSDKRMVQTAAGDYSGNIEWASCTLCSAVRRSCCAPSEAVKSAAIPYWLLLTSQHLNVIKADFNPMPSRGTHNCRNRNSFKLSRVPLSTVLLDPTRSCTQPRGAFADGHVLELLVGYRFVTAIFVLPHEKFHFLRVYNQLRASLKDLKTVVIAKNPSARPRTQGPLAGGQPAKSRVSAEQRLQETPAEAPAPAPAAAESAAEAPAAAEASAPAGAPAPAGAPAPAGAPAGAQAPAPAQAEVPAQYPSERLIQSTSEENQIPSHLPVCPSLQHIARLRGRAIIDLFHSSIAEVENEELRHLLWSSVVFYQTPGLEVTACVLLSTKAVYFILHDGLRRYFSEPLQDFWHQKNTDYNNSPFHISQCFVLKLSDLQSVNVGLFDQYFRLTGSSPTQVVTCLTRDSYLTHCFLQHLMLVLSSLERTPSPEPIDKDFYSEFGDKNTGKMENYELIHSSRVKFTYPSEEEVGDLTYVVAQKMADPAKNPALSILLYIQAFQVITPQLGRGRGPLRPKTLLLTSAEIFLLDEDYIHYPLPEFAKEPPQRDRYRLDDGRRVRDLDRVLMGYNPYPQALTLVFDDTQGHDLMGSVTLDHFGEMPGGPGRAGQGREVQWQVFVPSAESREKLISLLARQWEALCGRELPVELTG

Turning to `Cl.c1ccc2c(c1)ccn2CC1=NCCN1`, the Activity in the experiment with Rattus norvegicus [1] is on record as -105.3 bpm; in the experiment with Rattus norvegicus [3], -38.5 mmHg; in the experiment with Rattus norvegicus [5], -27.9 mmHg; in the experiment with Rattus norvegicus [6], -115.2 bpm; in the experiment with Rattus norvegicus [7], 6.9 mmHg; with Rattus norvegicus [8] it was 33.7 mmHg. For the same compound, the Activity with Rattus norvegicus [9] is given as -75.1 bpm. In addition, the figures for the Ki (in [2]; in [4]; on Nischarin) were 33.5 nM, 197 nM and 81400 nM, respectively.

Consider `Br.Cc1cccc2ccn(CC3=NCCN3)c12`, for which the Activity in the experiment on Rattus norvegicus [1] is given as -111.7 bpm; in the experiment with Rattus norvegicus [3] it was -40.9 mmHg; in the experiment with Rattus norvegicus [5] it was -46.5 mmHg; in the experiment with Rattus norvegicus [6], -107.5 bpm; in the experiment on Rattus norvegicus [7], -39.2 mmHg; with Rattus norvegicus [8], -4.2 mmHg. Moreover, the Activity in the experiment with Rattus norvegicus [9] is recorded as -87.7 bpm. Also, the figures for the Ki (in experiment [2]; in experiment [4]; at Nischarin) were 16.63 nM, 1160 nM and 1000 nM, respectively.

With `Cl.Clc1cccc2ccn(CC3=NCCN3)c12`, the Activity with Rattus norvegicus [1] is -125.4 bpm; in the experiment on Rattus norvegicus [3], -61.2 mmHg; in the experiment with Rattus norvegicus [5] it was -56.1 mmHg; in the experiment with Rattus norvegicus [6] it was -130.7 bpm; in the experiment on Rattus norvegicus [7], -36 mmHg; with Rattus norvegicus [8] it was 7.4 mmHg. In addition, the Activity with Rattus norvegicus [9] is given as -129.4 bpm. Further, the Ki in experiment [2] was 6.34 nM; in experiment [4], 71.1 nM; at Nischarin it was 10300 nM.

As a reminder, the Ki is the equilibrium dissociation constant of an inhibitor or competing ligand from its target.
